Assay results published in patent US7238830B2, “N-alkylaspartyl dipeptide ester compounds” (Ajinomoto Co., Inc., priority 1998, dated 2007).
Like-named read-outs stand apart in the source and are kept apart here. Peptide text beside a SMILES is read from it.

How the values were obtained:
[1] = reported in WO 94/11391, compared to 2%, 5% and 10% sucrose solutions, cited from earlier work
physchem = assay type: physicochemical
[2] = Sensory evaluation of sweetness (sweetening potency) relative to sucrose; settings: for Sweetness (sweetening potency): sensory evaluation; for sweetness potency: values compared to sweetening potency of a 4% aqueous solution of sucrose
Excerpt: For example, the sweetness of N-[N-[3-(3-hydroxy-4-methoxyphenyl)-3-methylbutyl]-L-α-aspartyl]-L-phenylalanine 1-methyl ester was approximately 70000 times that of sugar, the sweetness of N-[N-[3-(3-methyl-4 hydroxyphenyl)-3-methylbutyl]-L-α-aspartyl]-L-phenylalanine 1-methyl ester was approximately 70000 times that of sugar, the sweetness of N-[N-[3-(3-hydroxy-4-methylphenyl)-3-methylbutyl]-L-α- aspartyl]-L-phenylalanine 1-methyl ester was approximately 60000 times that of sugar, and the sweetness of N-[N-((RS)-3-(3 hydroxy-4-methoxyphenyl) butyl]-L-α-aspartyl]-L-phenylalanine 1-methyl ester was approximately 50000 times that of sugar. […] Sensory evaluations can be performed as described in, for example, B. T. Carr, S. D. Pecore, K. M. Gibes and G. E. Dubois, “Sensory Methods for Sweetner Evaluation” in Flavor Measurement, edited by C. T. Ho and C. H. Manley, Marcel Decker, Inc. (1992).

| Structure (SMILES) | Sweetness (sweetening potency) [2] | sweetness potency [2] | further results |
| --- | --- | --- | --- |
| COC(=O)[C@H](Cc1ccccc1)NC(=O)[C@H](CC(=O)O)NC(C)CCc1ccc(O)c(OC)c1 (mixture of isomers) [N-[N-[3-(3-methoxy-4-hydroxyphenyl)(RS)-1-methylpropyl]-L-α-aspartyl]-L-phenylalanine 1-methylester] |  |  | sweetening potency [1]: 500 times that of sucrose |
| COC(=O)[C@H](Cc1ccccc1)NC(=O)[C@H](CC(=O)O)NCCC(C)(C)c1ccc(O)cc1 [Compound 8, N-[N-[3-(4-hydroxyphenyl)-3-methylbutyl]-L-α-aspartyl]-L-phenylalanine 1 methyl ester] | 25000 times the sweetness of sugar | 25000 | half life in a buffer (physchem): 43.6 h |
| COC(=O)[C@H](Cc1ccccc1)NC(=O)[C@H](CC(=O)O)NCCC(C)(C)c1ccc(O)c(OC)c1 [Compound 9, N-[N-[3-(3-methoxy-4-hydroxyphenyl)-3-methylbutyl]-L-α-aspartyl)-L-phenylalanine 1 methyl ester] | 40000 times the sweetness of sugar | 40000 | half life in a buffer (physchem): 34.4 h |
| COC(=O)[C@H](Cc1ccccc1)NC(=O)[C@H](CC(=O)O)NCCC(C)(C)c1ccc(OC)c(O)c1 [Compound 10, N-[N-[3-(3-hydroxy-4-methoxyphenyl)-3-methylbutyl]-L-α-aspartyl]-L-phenylalanine 1-methyl ester] |  | 70000 | half life in a buffer (physchem): 44.5 h; Sweetness (sweetening potency) ([2]; listed as Example 1): 70000 times the sweetness of sugar |
| COC(=O)[C@H](Cc1ccccc1)NC(=O)[C@H](CC(=O)O)NCCC(C)(C)c1ccc(C)cc1O [Compound 15, N-[N-[3-(2-hydroxy-4-methylphenyl)-3-methylbutyl]-L-α-aspartyl]-L-phenylalanine 1-methyl ester] | 25000 times the sweetness of sugar | 25000 |  |
| COC(=O)[C@H](Cc1ccccc1)NC(=O)[C@H](CC(=O)O)NCCC(C)(C)c1ccc2c(c1)OCO2 [Compound 16, N-[N-[3-(3,4-methylenedioxyphenyl)-3-methylbutyl]-L-α-aspartyl]-L-phenylalanine-1-methyl ester] | 30000 times the sweetness of sugar | 30000 |  |
| COC(=O)[C@H](Cc1ccccc1)NC(=O)[C@H](CC(=O)O)NCCC(C)(C)c1ccc(OC)c(C)c1 [Compound 17, N-[N-[3-(3-methyl-4-methoxyphenyl)-3-methylbutyl]-L-α-aspartyl]-L-phenylalanine 1-methyl ester] | 30000 times the sweetness of sugar | 30000 |  |
| COC(=O)[C@H](Cc1ccccc1)NC(=O)[C@H](CC(=O)O)NCCC(C)(C)c1ccc(O)c(C)c1 [Compound 18, N-[N-[3-(3-methyl-4-hydroxyphenyl)-3-methylbutyl)-L-α-aspartyl]-L-phenylalanine 1-methyl ester] | approximately 70000 times the sweetness of sugar | 70000 | Sweetness (sweetening potency) ([2]; listed as Example 11): 70000 times the sweetness of sugar |
| COC(=O)[C@H](Cc1ccccc1)NC(=O)[C@H](CC(=O)O)NCCC(C)(C)c1ccc(C)c(O)c1 [Compound 19, N-[N-[3-(3-hydroxy-4-methylphenyl)-3-methylbutyl]-L-α-aspartyl]-L-phenylalanine 1-methyl ester] | approximately 60000 times the sweetness of sugar | 60000 | Sweetness (sweetening potency) ([2]; listed as Example 22): 60000 times the sweetness of sugar |
| COC(=O)[C@H](Cc1ccccc1)NC(=O)[C@H](CC(=O)O)NCCC1(c2ccc(O)c(OC)c2)CCCC1 [Compound 20, N-[N-[2-[1-(3-methoxy-4-hydroxyphenyl)cyclopentyl]ethyl]-L-α-aspartyl]-L-phenylalanine 1-methyl ester] | 30000 times the sweetness of sugar | 30000 |  |
| CCOC(=O)[C@H](Cc1ccccc1)NC(=O)[C@H](CC(=O)O)NCCC(C)(C)c1ccc(OC)c(O)c1 [Compound 21, N-[N-[3-(3-hydroxy-4-methoxyphenyl)-3-methylbutyl]-L-α-aspartyl]-L-phenylalanine 1-ethyl ester] | 15000 times the sweetness of sugar | 15000 |  |
| COC(=O)[C@](C)(Cc1ccccc1)NC(=O)[C@H](CC(=O)O)NCCC(C)(C)c1ccc(OC)c(O)c1 [Compound 22] | 40000 times the sweetness of sugar | 40000 |  |
| COC(=O)[C@H](Cc1ccccc1)NC(=O)[C@H](CC(=O)O)NCCC(C)(C)c1ccc(O)c(O)c1 [Compound 23, N-[N-[3-(3,4-dihydroxyphenyl)-3-mehylbutyl]-L-α-aspartyl]-L-phenylalanine 1-methyl ester] | 50000 times the sweetness of sugar | 50000 |  |
| COC(=O)[C@H](Cc1ccccc1)NC(=O)[C@H](CC(=O)O)NCCC(C)(C)C [N-[N-(3,3-dimethylbutyl)-L-α-aspartyl]-L-phenylalanine 1-methyl ester, reference compound] |  |  | sweetening potency [1]: 10,000 times that of sucrose; sweetening potency ([1]; listed as N-[N-(3,3-dimethylbutyl)-L-α-aspartyl]-L-phenylalanine 1-methylester): 10000 times that of sucrose |
| COC(=O)[C@H](Cc1ccc(O)cc1)NC(=O)[C@H](CC(=O)O)NCCC(C)(C)C [N-[N-(3,3-dimethylbutyl)-L-α-aspartyl]-L-tyrosine 1-methyl ester] |  |  | sweetening potency [1]: 4,000 times that of sucrose; sweetening potency ([1]; listed as N-[N-(3,3-dimethylbutyl)-L-α-aspartyl]-L-tyrosine 1-methylester): 4000 times that of sucrose |
| COC(=O)[C@H](Cc1ccccc1)NC(=O)[C@H](CC(=O)O)NCCCc1ccc(O)c(OC)c1 [N-[N-(3-(3-methoxy-4-hydroxyphenylpropyl)-L-α-aspartyl]-L-phenylalanine 1-methyl ester] |  |  | sweetening potency [1]: 2500 times that of sucrose |
| COC(=O)[C@H](Cc1ccccc1)NC(=O)[C@H](CC(=O)O)NCCCc1ccccc1 [N-[N-(3-phenylpropyl)-L-(α-aspartyl]-L-phenylalanine 1-methyl ester] |  |  | sweetening potency [1]: 1500 times that of sucrose |
| COC(=O)[C@H](Cc1ccccc1)NC(=O)[C@@H](N)CC(=O)O [aspartame, reference compound] (H-Asp-Phe-OMe) |  |  | half-life (physchem; buffer, pH 3): 23.5 h |
